# Experimental data: the supplement of paper PMC10702517
# ± gives the standard deviation.
# Tests used:
# [1] = chemical recovery by SPE of plasma after PDMS sampling; higher = better extraction; settings: pooled human plasma, extraction method: HLB SPE of plasma after PES
# [2] = chemical recovery from spiked human plasma; higher = better extraction; settings: pooled human plasma
# [3] = chemical recovery into PDMS from spiked human plasma; higher = better extraction; settings: pooled human plasma, extraction method: PES with PDMS
# [4] = extraction method: PES+SPE (3 d PDMS equilibration then HLB SPE)
# [5] = extraction method: SPE only (HLB 96-well)
# [6] = extraction method: SPE only (HLB 96-well), PES comparison experiment
# [7] = extraction method: solvent precipitation (ACN + hexane)
# 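For chemical recovery by SPE of plasma after PDMS sampling in this document: over 400 spiked chemicals quantified by LC-HRMS or GC-HRMS via internal standard calibration, recovery relative to spike mix added to unspiked plasma extract to correct matrix effects.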
SMILES,chemical recovery by SPE of plasma ([1]; equilibration time (d): 1),chemical recovery by SPE of plasma ([1]; equilibration time (d): 3),chemical recovery by SPE of plasma ([1]; equilibration time (d): 6),"chemical recovery [2, 4]","chemical recovery [2, 5]","chemical recovery [2, 6]","chemical recovery [2, 7]",chemical recovery into PDMS ([3]; equilibration time (d): 1),chemical recovery into PDMS ([3]; equilibration time (d): 3),chemical recovery into PDMS ([3]; equilibration time (d): 6)
CNC1=C(c2cccc(C(F)(F)F)c2)C(=O)C(c2ccccc2)O1 (configuration not stated) [Flurtamone],15.5 ± 2.1%,11 ± 1.4%,6.82 ± 0.47%,32.8 ± 7.2%,51.2 ± 0.52%,49.3 ± 7.7%,80.8 ± 2.4%,1.85 ± 0.36%,4.2 ± 2%,5.43 ± 2.8%
N#Cc1nn(-c2c(Cl)cc(C(F)(F)F)cc2Cl)c(N)c1C(F)(F)F [Fipronil desulfinyl],17.6 ± 2.5%,18 ± 1.9%,13.8 ± 0.85%,–,30.2 ± 6.1%,67.3 ± 7.3%,53.7 ± 4.2%,33.7 ± 0.57%,36.3 ± 2.9%,34.8 ± 0.66%
CCOP(=S)(OCC)Oc1cc(C)nc(C(C)C)n1 [Diazinon],0.161 ± 0.14%,0.223 ± 0.071%,0.073 ± 0.064%,–,–,38 ± 6.1%,62.9 ± 4.1%,31.2 ± 2.3%,34 ± 2.4%,34 ± 0.57%
CC(CCl)OP(=O)(OC(C)CCl)OC(C)CCl (configuration not stated) [Tris(1-chloro-2-propyl)phosphate],–,1.7 ± 2%,3.1 ± 2.4%,–,–,55 ± 8.9%,–,34.1 ± 1.8%,44.3 ± 3.9%,43.7 ± 3.3%
C=CCC1=C(C)C(OC(=O)C2C(C=C(C)C)C2(C)C)CC1=O (configuration not stated) [Allethrin],–,0.042 ± 0.073%,–,–,–,34.6 ± 6.6%,–,36 ± 1.6%,38.6 ± 3.5%,37.9 ± 1.6%
O=S(=O)(O)c1ccccc1 [Benzenesulfonic acid],3.18 ± 3.5%,1.77 ± 0.98%,2.93 ± 1.1%,1.83 ± 0.28%,2.56 ± 1.3%,8.52 ± 6%,80.7 ± 8.4%,0.00847 ± 0.015%,–,–
CN/C(=N\[N+](=O)[O-])NCc1cnc(Cl)s1 [Clothianidin],59.2 ± 6.8%,62.2 ± 5.3%,57 ± 2.6%,54 ± 1.1%,55.1 ± 3.7%,50.9 ± 5.5%,75.8 ± 4.7%,0.813 ± 0.031%,1.39 ± 0.29%,1.64 ± 0.42%
CCOC(=O)C1=C(C)NC(C)=C(C(=O)OC)C1c1cccc([N+](=O)[O-])c1 (configuration not stated) [Nitrendipin],7.61 ± 0.89%,5.18 ± 0.19%,2.81 ± 0.16%,37.1 ± 7.9%,42.25 ± 0.22%,51.5 ± 5.5%,52.1 ± 2.9%,13.4 ± 0.56%,17.4 ± 3.6%,18.6 ± 1.1%
CCCCCCCCn1sccc1=O [2-Octyl-4-isothiazolin-3-one],1.24 ± 0.64%,1.03 ± 0.27%,0.459 ± 0.03%,–,29.4 ± 2.2%,21.6 ± 2.9%,40.8 ± 4.6%,33.3 ± 1.9%,35.5 ± 1.5%,36.3 ± 1.2%
CNC(=O)Oc1cccc2c1OC(C)(C)O2 [Bendiocarb],20.4 ± 0.99%,26.5 ± 2.1%,21.6 ± 1.7%,35.9 ± 5.4%,45.8 ± 1.5%,45.4 ± 4.6%,0.0898 ± 0.13%,25.2 ± 0.81%,20.4 ± 0.2%,21.4 ± 0.87%
CN1C(=O)CC[C@H]1c1cccnc1 [Cotinine],6.83 ± 6.3%,2.33 ± 0.49%,4.13 ± 1.4%,23.3 ± 6.5%,6.77 ± 2.8%,–,80.5 ± 3.5%,6.6 ± 0.43%,10.6 ± 2.5%,11.6 ± 1.5%
C#CC(C)(C)NC(=O)c1cc(Cl)cc(Cl)c1 [Propyzamide],5.12 ± 0.61%,7.16 ± 0.99%,4.71 ± 0.68%,64.9 ± 12%,65 ± 3.2%,48.1 ± 8.4%,64.8 ± 3.9%,34.8 ± 1.4%,38.5 ± 1.1%,39.4 ± 0.71%
Cc1cc(O)cc(C)c1[S+](C)[O-] (configuration not stated) [Methiocarb-sulfoxide phenol],66.4 ± 8.3%,66.7 ± 4.1%,61.6 ± 2.4%,–,45.3 ± 8.7%,54.3 ± 6.8%,78.8 ± 5.1%,18.7 ± 0.39%,20.6 ± 0.91%,20.7 ± 1.2%
CC(=O)OCC(=O)[C@@]12OC3(CCCC3)O[C@@H]1C[C@H]1[C@@H]3CCC4=CC(=O)C=C[C@]4(C)[C@@]3(F)[C@@H](O)C[C@@]12C [Amcinonide],1.91 ± 3.3%,1.48 ± 2.6%,–,–,–,39.5 ± 7.4%,–,35.6 ± 2.6%,38.1 ± 2.4%,35.6 ± 2.7%
O=[N+]([O-])c1cc[n+]([O-])c2ccccc12 [4-Nitroquinoline-1-oxide],15.1 ± 2.7%,18.4 ± 2.5%,13.5 ± 1.6%,–,–,42.3 ± 8.4%,–,14.2 ± 0.49%,14.7 ± 1.4%,17 ± 0.8%
CC[C@@]1([C@@H]2O[C@@H]([C@H]3O[C@@](O)(CO)[C@H](C)C[C@@H]3C)C[C@@H]2C)CC[C@H]([C@]2(C)CC[C@]3(C[C@H](O)[C@@H](C)[C@@H]([C@@H](C)[C@@H](OC)[C@H](C)C(=O)O)O3)O2)O1 [Monensin],3.19 ± 0.8%,2.26 ± 0.39%,1.33 ± 0.27%,–,–,29.9 ± 6.6%,1.03 ± 1.8%,37.1 ± 2.8%,38.6 ± 0.52%,37.8 ± 2.2%
OC(Cn1cncn1)(Cn1cncn1)c1ccc(F)cc1F [Fluconazole],42.2 ± 4.3%,42.2 ± 4.8%,36.6 ± 3.1%,43.8 ± 3.3%,–,47 ± 6.6%,77.1 ± 3.1%,2.22 ± 0.25%,4.26 ± 1.1%,4.9 ± 1%
CN1C(=O)C(O)N=C(c2ccccc2)c2cc(Cl)ccc21 (configuration not stated) [Temazepam],30.4 ± 4.8%,27.9 ± 3.1%,22 ± 2.1%,62.9 ± 6.2%,46.8 ± 2.9%,44.5 ± 6.3%,77.8 ± 3.1%,11.2 ± 0.91%,16.5 ± 0.71%,17.6 ± 1.9%
CCOP(=S)(OCC)SCn1nnc2ccccc2c1=O [Ethyl azinphos],2.46 ± 0.6%,2.42 ± 0.18%,1.19 ± 0.21%,–,–,46.3 ± 6%,69.5 ± 2.2%,39.8 ± 4.6%,41.4 ± 0.64%,42.5 ± 2.1%
c1ccc2sc(NC3CCCCC3)nc2c1 [N-Cyclohexyl-2-benzothiazole-amine],0.591 ± 0.065%,0.595 ± 0.073%,0.297 ± 0.037%,98.9 ± 11%,51.9 ± 3.6%,42.4 ± 6.5%,74.8 ± 3.3%,32.4 ± 2.2%,34 ± 3%,34.2 ± 1.6%
"NC(=O)Nc1ccc(Cl)c(Cl)c1 [3,4-Dichlorophenylurea]",40.1 ± 4.3%,40.9 ± 3%,36.5 ± 1.1%,56.4 ± 2.7%,43.9 ± 3.2%,49.3 ± 6.2%,71.8 ± 3.8%,0.856 ± 1.5%,4.96 ± 0.6%,5.93 ± 0.81%
CC(C)(C)NC(=O)[C@H]1CC[C@H]2[C@@H]3CC[C@H]4NC(=O)C=C[C@]4(C)[C@H]3CC[C@]12C [Finasteride],9.28 ± 1.5%,5.81 ± 1.2%,3.05 ± 0.42%,–,–,47.9 ± 6.3%,–,32.6 ± 3%,37.9 ± 1.4%,38.5 ± 0.91%
Cc1ccc(-c2cc(C(F)(F)F)nn2-c2ccc(S(N)(=O)=O)cc2)cc1 [Celecoxib],45.7 ± 5.5%,39.7 ± 1.8%,32.4 ± 1.7%,–,33.2 ± 6.9%,47.6 ± 5%,42.7 ± 2.1%,1.77 ± 0.12%,6.98 ± 2.7%,8.5 ± 3.5%
Clc1cc(Cl)c(-c2ccc(Cl)c(Cl)c2Cl)cc1Cl [PCB138],4.29 ± 2.9%,1.78 ± 0.29%,1.33 ± 0.48%,61.3 ± 12%,2.27 ± 0.8%,11.2 ± 2.8%,81.6 ± 6.5%,67.4 ± 9.5%,91.8 ± 1.4%,89.4 ± 5.2%
